HELM strings list units from the 5' end as sugar, base in round brackets, then linkage (d deoxyribose, r ribose, m 2'-O-methyl, p phosphodiester). Strings are as the collection lists them; they lack the last nucleoside at the 3' end of the tested compound. [moe] = 2'-O-(2-methoxyethyl) (MOE); [sp] = phosphorothioate linkage; [m5C] = 5-methylcytosine
Molecular target: PRNP
Assay: mouse, dose not given
Settings: ASO

Substance	3 h FOB score [score 0-7]
RNA1{[moe]([m5C])[sp].[moe](T)p.[moe](A)p.[moe](T)p.d(G)[sp].d(T)[sp].d(T)[sp].d(T)[sp].d(T)[sp].d([m5C])[sp].d([m5C])[sp].d(A)[sp].d(G)[sp].d(T)[sp].[moe](G)p.[moe]([m5C])p.[moe]([m5C])p.[moe]([m5C])[sp].[moe](A)}$$$$ (last 3' nucleoside missing)	1.25
RNA1{[moe](T)[sp].[moe](T)p.[moe](G)p.[moe](T)p.[moe](G)[sp].d(A)[sp].d([m5C])[sp].d(A)[sp].d(A)[sp].d(T)[sp].d(A)[sp].d(T)[sp].d(T)[sp].d(T)[sp].d(A)[sp].[moe]([m5C])p.[moe](T)p.[moe]([m5C])[sp].[moe](T)}$$$$ (last 3' nucleoside missing)	0
RNA1{[moe](G)[sp].[moe](T)p.[moe]([m5C])p.[moe](A)p.[moe](T)p.[moe](A)p.d(A)[sp].d(T)[sp].d(T)[sp].d(T)[sp].d(T)[sp].d([m5C])[sp].d(T)[sp].d(T)[sp].d(A)[sp].d(G)[sp].[moe]([m5C])p.[moe](T)[sp].[moe](A)}$$$$ (last 3' nucleoside missing)	2.5
RNA1{[moe](G)[sp].[moe](T)p.[moe]([m5C])p.[moe](A)p.[moe](T)p.d(A)[sp].d(A)[sp].d(T)[sp].d(T)[sp].d(T)[sp].d(T)[sp].d([m5C])[sp].d(T)[sp].d(T)[sp].[moe](A)[sp].[moe](G)p.[moe]([m5C])p.[moe](T)}$$$$ (last 3' nucleoside missing)	0
RNA1{[moe](G)[sp].[moe](T)[sp].[moe]([m5C])p.[moe](A)p.[moe](G)p.[moe](T)p.[moe](T)p.d(T)[sp].d(T)[sp].d(T)[sp].d([m5C])[sp].d([m5C])[sp].d([m5C])[sp].d([m5C])[sp].d(A)[sp].d([m5C])[sp].d(A)[sp].[moe](T)p.[moe](A)}$$$$ (last 3' nucleoside missing)	0
RNA1{[moe](A)[sp].[moe](T)p.[moe](T)p.[moe](T)p.[moe](A)[sp].d(G)[sp].d(G)[sp].d([m5C])[sp].d(T)[sp].d([m5C])[sp].d(T)[sp].d(T)[sp].d(T)[sp].d(T)[sp].d([m5C])[sp].[moe]([m5C])p.[moe](A)p.[moe](G)[sp].[moe](G)}$$$$ (last 3' nucleoside missing)	4.75
RNA1{[moe]([m5C])[sp].[moe]([m5C])p.[moe](G)p.[moe](T)p.[moe](T)[sp].d([m5C])[sp].d(A)[sp].d(T)[sp].d([m5C])[sp].d(T)[sp].d(T)[sp].d(A)[sp].d(T)[sp].d(T)[sp].d([m5C])[sp].[moe]([m5C])p.[moe]([m5C])p.[moe](A)[sp].[moe](T)}$$$$ (last 3' nucleoside missing)	0
RNA1{[moe]([m5C])[sp].[moe](A)p.[moe](T)p.[moe](T)p.[moe](T)[sp].d(G)[sp].d(A)[sp].d(T)[sp].d(T)[sp].d(T)[sp].d([m5C])[sp].d(A)[sp].d(A)[sp].d(G)[sp].d(T)[sp].[moe]([m5C])p.[moe]([m5C])p.[moe]([m5C])[sp].[moe](A)}$$$$ (last 3' nucleoside missing)	3
RNA1{[moe](G)[sp].[moe]([m5C])p.[moe](A)p.[moe]([m5C])p.[moe](A)p.d([m5C])[sp].d(T)[sp].d(G)[sp].d(A)[sp].d([m5C])[sp].d([m5C])[sp].d(A)[sp].d(T)[sp].d(T)[sp].[moe](T)[sp].[moe](T)p.[moe](T)p.[moe](T)}$$$$ (last 3' nucleoside missing)	0
RNA1{[moe](T)[sp].[moe]([m5C])p.[moe](T)p.[moe](A)p.[moe](T)p.d(G)[sp].d(T)[sp].d(T)[sp].d(T)[sp].d(T)[sp].d([m5C])[sp].d([m5C])[sp].d(A)[sp].d(G)[sp].[moe](T)[sp].[moe](G)p.[moe]([m5C])p.[moe]([m5C])}$$$$ (last 3' nucleoside missing)	0
RNA1{[moe](T)[sp].[moe](G)p.[moe](G)p.[moe](T)p.[moe](G)[sp].d(A)[sp].d(T)[sp].d(T)[sp].d(T)[sp].d(T)[sp].d(T)[sp].d(T)[sp].d([m5C])[sp].d([m5C])[sp].d(T)[sp].[moe](T)p.[moe](T)p.[moe]([m5C])[sp].[moe](T)}$$$$ (last 3' nucleoside missing)	0
RNA1{[moe](G)[sp].[moe](T)p.[moe](G)p.[moe](G)p.[moe](A)[sp].d(A)[sp].d(G)[sp].d(A)[sp].d([m5C])[sp].d(T)[sp].d(T)[sp].d(G)[sp].d(T)[sp].d(G)[sp].d(T)[sp].[moe](T)p.[moe](A)p.[moe](G)[sp].[moe](A)}$$$$ (last 3' nucleoside missing)	5.25
RNA1{[moe]([m5C])[sp].[moe](A)p.[moe](G)p.[moe](T)p.[moe](T)[sp].d(T)[sp].d(T)[sp].d(T)[sp].d([m5C])[sp].d([m5C])[sp].d([m5C])[sp].d([m5C])[sp].d(A)[sp].[moe]([m5C])p.[moe](A)p.[moe](T)[sp].[moe](A)}$$$$ (last 3' nucleoside missing)	0
RNA1{[moe](T)[sp].[moe](G)p.[moe](T)p.[moe](T)p.[moe](A)[sp].d(T)[sp].d(T)[sp].d(T)[sp].d([m5C])[sp].d([m5C])[sp].d(T)[sp].d([m5C])[sp].d(T)[sp].d(G)[sp].d(T)[sp].[moe](G)p.[moe]([m5C])p.[moe](T)[sp].[moe](T)}$$$$ (last 3' nucleoside missing)	3.75
RNA1{[moe]([m5C])[sp].[moe]([m5C])p.[moe]([m5C])p.[moe](A)p.[moe](G)[sp].d(T)[sp].d(G)[sp].d(T)[sp].d(T)[sp].d([m5C])[sp].d([m5C])[sp].d(A)[sp].d(T)[sp].d([m5C])[sp].d([m5C])[sp].[moe](T)p.[moe]([m5C])p.[moe]([m5C])[sp].[moe](A)}$$$$ (last 3' nucleoside missing)	2
RNA1{[moe](T)[sp].[moe](G)p.[moe](G)p.[moe](T)p.[moe](A)[sp].d(G)[sp].d(T)[sp].d(T)[sp].d(T)[sp].d(T)[sp].d(T)[sp].d([m5C])[sp].d(A)[sp].d(A)[sp].d(A)[sp].[moe](T)p.[moe]([m5C])p.[moe](A)[sp].[moe](A)}$$$$ (last 3' nucleoside missing)	0
RNA1{[moe](G)[sp].[moe]([m5C])p.[moe](A)p.[moe](A)p.[moe]([m5C])[sp].d(G)[sp].d(G)[sp].d([m5C])[sp].d(T)[sp].d([m5C])[sp].d(A)[sp].d(T)[sp].d(G)[sp].d(A)[sp].d(T)[sp].[moe](G)p.[moe](A)p.[moe](A)[sp].[moe]([m5C])}$$$$ (last 3' nucleoside missing)	3.5
RNA1{[moe](G)[sp].[moe](G)p.[moe](T)p.[moe](T)p.[moe](A)[sp].d([m5C])[sp].d(A)[sp].d(T)[sp].d(A)[sp].d(A)[sp].d(T)[sp].d(G)[sp].d(T)[sp].d(T)[sp].d([m5C])[sp].[moe](A)p.[moe](T)p.[moe](T)[sp].[moe](T)}$$$$ (last 3' nucleoside missing)	5
RNA1{[moe](G)[sp].[moe]([m5C])p.[moe]([m5C])p.[moe](A)p.[moe](A)[sp].d(G)[sp].d(G)[sp].d(G)[sp].d(T)[sp].d(A)[sp].d(T)[sp].d(T)[sp].d(G)[sp].d(A)[sp].d(T)[sp].[moe](T)p.[moe](A)p.[moe](G)[sp].[moe]([m5C])}$$$$ (last 3' nucleoside missing)	3.5
RNA1{[moe](G)[sp].[moe](G)p.[moe](T)p.[moe](T)p.[moe](A)[sp].d(G)[sp].d([m5C])[sp].d(T)[sp].d(T)[sp].d(T)[sp].d(T)[sp].d(T)[sp].d(T)[sp].d(T)[sp].d([m5C])[sp].[moe](A)p.[moe]([m5C])p.[moe](T)[sp].[moe](G)}$$$$ (last 3' nucleoside missing)	4.75
RNA1{[moe](G)[sp].[moe]([m5C])p.[moe](A)p.[moe]([m5C])p.d(A)[sp].d([m5C])[sp].d(T)[sp].d(G)[sp].d(A)[sp].d([m5C])[sp].d([m5C])[sp].d(A)[sp].d(T)[sp].d(T)[sp].[moe](T)p.[moe](T)p.[moe](T)p.[moe](T)[sp].[moe](A)}$$$$ (last 3' nucleoside missing)	2.25
RNA1{[moe](G)[sp].[moe](T)p.[moe]([m5C])p.[moe]([m5C])p.[moe](A)[sp].d(A)[sp].d(A)[sp].d(A)[sp].d(A)[sp].d(T)[sp].d(A)[sp].d(A)[sp].d(G)[sp].d(T)[sp].d([m5C])[sp].[moe]([m5C])p.[moe](A)p.[moe](G)[sp].[moe](A)}$$$$ (last 3' nucleoside missing)	1
RNA1{[moe](G)[sp].[moe](T)p.[moe]([m5C])p.[moe](A)p.[moe](G)[sp].d(T)[sp].d(T)[sp].d(T)[sp].d(T)[sp].d(T)[sp].d([m5C])[sp].d([m5C])[sp].d([m5C])[sp].[moe]([m5C])p.[moe](A)p.[moe]([m5C])[sp].[moe](A)}$$$$ (last 3' nucleoside missing)	0
RNA1{[moe](G)[sp].[moe](T)p.[moe](G)p.[moe](T)p.[moe](T)[sp].d(G)[sp].d(T)[sp].d(G)[sp].d(A)[sp].d([m5C])[sp].d(A)[sp].d(A)[sp].d(T)[sp].d(A)[sp].d(T)[sp].[moe](T)p.[moe](T)p.[moe](A)[sp].[moe]([m5C])}$$$$ (last 3' nucleoside missing)	1
RNA1{[moe](G)[sp].[moe]([m5C])p.[moe]([m5C])p.[moe](A)p.[moe]([m5C])[sp].d(A)[sp].d(T)[sp].d(A)[sp].d(T)[sp].d(A)[sp].d(G)[sp].d(G)[sp].d(G)[sp].d(T)[sp].d([m5C])[sp].[moe]([m5C])p.[moe](T)p.[moe](T)[sp].[moe](T)}$$$$ (last 3' nucleoside missing)	1.5
RNA1{[moe](G)[sp].[moe](T)p.[moe](T)p.[moe](G)p.[moe](T)[sp].d(T)[sp].d(G)[sp].d(A)[sp].d(T)[sp].d(T)[sp].d(T)[sp].d(T)[sp].d(T)[sp].d([m5C])[sp].d([m5C])[sp].[moe](A)p.[moe](G)p.[moe](A)[sp].[moe](A)}$$$$ (last 3' nucleoside missing)	4.75

— the OligoGym collection
